Experimental findings from ChEMBL document CHEMBL1142024, “Glucokinase-activating ureas” (Bioorg Med Chem Lett, 2005) are described below.

Activity calls are given as the source filed them. No cut-off for these calls is given here.

As usually defined, the EC50 is the midpoint of the concentration-response curve. Read a low EC50 as higher potency in that assay.

The target of test [1] is T1, Hexokinase-4 (Rattus norvegicus, UniProt P17712).
T1 sequence (P17712 whole entry): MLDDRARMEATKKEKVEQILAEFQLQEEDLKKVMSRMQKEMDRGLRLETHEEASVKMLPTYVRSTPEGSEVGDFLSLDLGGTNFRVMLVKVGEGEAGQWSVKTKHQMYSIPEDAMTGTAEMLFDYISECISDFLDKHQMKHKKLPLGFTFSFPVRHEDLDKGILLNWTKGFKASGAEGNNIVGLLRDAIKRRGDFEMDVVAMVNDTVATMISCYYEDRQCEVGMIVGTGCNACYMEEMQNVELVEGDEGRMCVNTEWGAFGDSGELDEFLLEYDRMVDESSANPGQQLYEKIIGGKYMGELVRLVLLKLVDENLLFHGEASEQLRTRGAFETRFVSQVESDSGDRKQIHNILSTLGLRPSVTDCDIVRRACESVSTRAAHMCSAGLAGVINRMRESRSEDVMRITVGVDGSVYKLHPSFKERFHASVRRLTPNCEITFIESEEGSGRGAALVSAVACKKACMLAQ
Put plainly: Effective concentration for glucokinase activation with 5 mM glucose. The test is classed as functional.

Test [2] concerns the target T1, Hexokinase-4. Put plainly: Effective concentration for glucokinase activation; NA - No activation at 30 uM. The test is classed as functional.
Test [3] concerns the target T2, Hexokinase-4 (Rattus norvegicus) (UniProt P17712).
T2 sequence (whole entry): T1 sequence (P17712 whole entry)
As to the kind of experiment: Maximal activation of glucokinase; NA - No activation at 30 uM.

The target in test [4] is T2, Hexokinase-4 (Rattus norvegicus). As to the kind of experiment: Maximal activation of glucokinase at 15 mM glucose.
In test [5] the target is T1, Hexokinase-4. Put plainly: Effective concentration for glucokinase activation with 15 mM glucose. The class given is functional.
In test [6] the target is T1, Hexokinase-4. As to the kind of experiment: Effective concentration for glucokinase activity; NA - No activation at 30 uM. The test is classed as functional.

`CS(=O)(=O)c1ccc(N(Cc2nccs2)C(=O)Nc2ncc(Br)s2)cc1`: it took 24.1 µM to reach a half-maximal effect at Hexokinase-4 [1] (EC50).
The same measure, in the same setting: for `CS(=O)(=O)c1ccc(N(CC2CCCO2)C(=O)Nc2ncc(Cl)s2)cc1` (stereo not given) the value was 21.6 µM.
With `COc1ccc(N(CC2CCCC2)C(=O)Nc2nncs2)cn1`, at Hexokinase-4 [2], the EC50 result is listed as “Not Active”. For the same molecule, in test [3], the result was inactive.
`NS(=O)(=O)c1ccc(N(CC2CCCC2)C(=O)Nc2ncc(Cl)s2)cc1` had an EC50 at Hexokinase-4 [1] of 1.8 µM.
In the case of `CS(=O)(=O)c1ccc(N(CC2CCCC2)C(=O)Nc2nccs2)cc1`, the Activity in test [4] is 2.8. Moreover, the EC50 at Hexokinase-4 [5] worked out at 9.7 µM; at Hexokinase-4 [1], 16 µM.
As for `N#Cc1ccc(N(CC2CCCC2)C(=O)Nc2ncc(Cl)s2)cc1`, the EC50 at Hexokinase-4 [1] was determined as 2.4 µM.
Still for that read-out and setting: for `CS(=O)(=O)c1ccc(N(CC2CCCC2)C(=O)Nc2nnc(C(F)(F)F)s2)cc1` the value was 34.2 µM; for `CS(=O)(=O)c1ccc(N(Cc2ccco2)C(=O)Nc2ncc(Cl)s2)cc1`, 11.5 µM.
On the same count and under the same terms, for `CS(=O)(=O)c1ccc(N(CC2CCCC2)C(=O)Nc2ncc(Cl)s2)cc1` the value was 1.5 µM; for `O=C(Nc1nccs1)N(CC1CCCC1)c1ccc(F)c(F)c1`, 16.3 µM.
Still for that read-out and setting: for `O=C(Nc1ncc(Cl)s1)N(CC1CCCC1)c1ccc(F)c(F)c1` the value was 2.6 µM.
In test [4], `CS(=O)(=O)c1ccc(C(CC2CCCC2)C(=O)Nc2nccs2)cc1` (stereo not given) yielded an Activity of 1.6. Moreover, the EC50 worked out at 1 µM on Hexokinase-4 [5] and 2.2 µM on Hexokinase-4 [1].
On to `O=C(Nc1ncc(Cl)s1)N(CC1CCCC1)c1ccc(Oc2ccccc2)cc1`, for which the EC50 entry at Hexokinase-4 [6] is “Not Active”. Moreover, the result in test [3] was inactive.
Regarding `CS(=O)(=O)c1ccc(N(CC2CCCC2)C(=O)Nc2nc3ccc(S(C)(=O)=O)cc3s2)cc1`, on Hexokinase-4 [1], the EC50 came out at 32.9 µM.
As to `O=C(Nc1ccccn1)N(CC1CCCC1)c1ccc(F)c(F)c1`, the EC50 result at Hexokinase-4 [2] is reported as “Not Active”. Moreover, the result in test [3] was inactive.
In the case of `COc1cccc(N(CC2CCCC2)C(=O)Nc2ncc(Cl)s2)c1`, at Hexokinase-4 [1], the EC50 turned out to be 1.4 µM.
As to `CS(=O)(=O)c1ccc(N(CC2CCOCC2)C(=O)Nc2ncc(Cl)s2)cc1`, the EC50 at Hexokinase-4 [1] was found to be 4.9 µM.
Still for that read-out and setting: for `CS(=O)(=O)c1ccc(N(Cc2ccsc2)C(=O)Nc2ncc(Cl)s2)cc1` the value was 6.8 µM.
As to `CS(=O)(=O)c1ccc(N(CC2CCOC2)C(=O)Nc2ncc(Cl)s2)cc1` (stereo not given), the midpoint of the response at Hexokinase-4 [1], the EC50, lay at 21.9 µM.
Still for that read-out and setting: for `N#Cc1ccc(N(CC2CCCC2)C(=O)Nc2ncc(Cl)s2)cn1` the value was 7.7 µM; for `COc1ccc(N(CC2CCCC2)C(=O)Nc2ncc(Cl)s2)cn1`, 2.7 µM; for `NC(=O)c1cccc(N(CC2CCCC2)C(=O)Nc2ncc(Cl)s2)c1`, 1 µM.
Same read-out and setting: for `Cc1ccc(N(CC2CCCC2)C(=O)Nc2ncc(Cl)s2)cc1Cl` the value was 0.4 µM.
Turning to `O=C(Nc1ncc(Cl)s1)N(CC1CCCC1)c1ccc(N2CCOCC2)cc1`, the EC50 entry on Hexokinase-4 [6] was “Not Active”. Moreover, in test [3], the outcome was inactive.
In the case of `O=C(Nc1ncc(Cl)s1)N(CC1CCCC1)c1ccc(C(F)(F)F)cc1`, a half-maximal response at Hexokinase-4 [1] (EC50) required 1.3 µM.
Turning to `COc1ccc(N(CC2CCCC2)C(=O)NC2=NC(=O)CS2)cn1`, at Hexokinase-4 [1], the EC50 is 29.1 µM.
On the same count and under the same terms, for `O=C(Nc1ncc(Cl)s1)N(CC1CCCC1)c1ccc(Br)c(F)c1` the value was 0.7 µM.
Same read-out and setting: for `CS(=O)(=O)c1ccc(N(Cc2ccsc2)C(=O)Nc2ncc(Br)s2)cc1` the value was 6.5 µM; for `COc1ccc(N(CC2CCCC2)C(=O)Nc2nccs2)cn1`, 19.2 µM; for `CC(=O)Nc1cccc(N(CC2CCCC2)C(=O)Nc2ncc(Cl)s2)c1`, 0.3 µM.
On Hexokinase-4 [1], `CS(=O)(=O)c1ccc(N(Cc2cccs2)C(=O)Nc2ncc(Cl)s2)cc1` returned an EC50 of 6.6 µM.
The same measure, in the same setting: for `COc1ccc(N(CC2CCCC2)C(=O)Nc2ncc(Br)s2)cn1` the value was 2 µM.
